Source: patent publication US11351264B2, “PAR2 mimetic peptides and uses thereof” (ARIZONA BOARD OF REGENTS ON BEHALF OF THE UNIVERSITY OF …, priority 2016, dated 2022)
Primed or numbered codes have the meaning given here. *: point of attachment. 2at = 2-aminothiazol-4-yl N-terminal cap, Nc1nc(*)cs1; Hdc = hexadecyl (lipid tether group); PEG3′ = not defined here

Experiments:
Type in all cases: cell-based
PAR2 [1] = target: T1, PAR2 (Homo sapiens, UniProt P55085); assay: RTCA screen (xCELLigence in vitro physiological signalling assay)
T1 sequence (P55085 26-397): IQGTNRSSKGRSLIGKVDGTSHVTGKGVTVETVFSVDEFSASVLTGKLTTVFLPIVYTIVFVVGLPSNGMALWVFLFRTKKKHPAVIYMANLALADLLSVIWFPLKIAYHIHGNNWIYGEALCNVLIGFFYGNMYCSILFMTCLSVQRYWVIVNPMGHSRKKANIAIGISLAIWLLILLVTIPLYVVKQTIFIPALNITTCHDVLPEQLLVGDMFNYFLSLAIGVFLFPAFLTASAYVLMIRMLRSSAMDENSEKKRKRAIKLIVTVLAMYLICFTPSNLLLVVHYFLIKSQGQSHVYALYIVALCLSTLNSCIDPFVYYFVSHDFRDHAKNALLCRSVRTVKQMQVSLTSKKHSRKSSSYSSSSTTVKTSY
Description: FIGS. 5A-B show in vitro physiological PAR2 agonist screening using xCELLigence. […] This compound was a biased-signalling antagonist in that it had no effect on mitogen activated protein kinase (MAPK) signalling, the other major signalling pathway activated via PAR2. […] Thus, experiments screened a series of potential PAR2 ligands with a heterocycle serine substitute followed by four amino acids (XXGR) and the PEG3-Hdc lipid tether. […], C595 and […] are novel pharmacological tools that can be used to evaluate the physiological consequences of PAR2 full and biased ligand signalling.

PAR2 [2] = target: T1, PAR2; assay: Mitogen activated protein kinase (MAPK) signalling activated via PAR2; conditions: for Effect on MAPK signalling (as antagonist): C608 at nanomolar concentrations
Description: (§1) This compound was a biased-signalling antagonist in that it had no effect on mitogen activated protein kinase (MAPK) signalling, the other major signalling pathway activated via PAR2. […] C595 is closely related to the previously described potent and specific PAR2 agonist, 2-at-LIGR (SEQ ID NO: 1)-PEG3-Hdc. Thus, experiments screened a series of potential PAR2 ligands with a heterocycle serine substitute followed by four amino acids (XXGR) and the PEG3-Hdc lipid tether. […] C562, C595 and C608 are novel pharmacological tools that can be used to evaluate the physiological consequences of PAR2 full and biased ligand signalling.

PAR2 [3] = target: T1, PAR2; assay: PAR2 Ca2+ signalling in cultured human bronchial epithelial cells (16HBE14o-); design: endogenous in cells; host or cells: 16HBE14o- human bronchial epithelial cells; conditions: for Block of PAR2 Ca2+ signalling elicited via protease activation: Alternaria alternata filtrates; for Block of PAR2 Ca2+ signalling elicited via protease activation / Block of PAR2 Ca2+ signalling elicited via peptidomimetics: 16HBE14o- cells, C608 at nanomolar concentrations; for Block of PAR2 Ca2+ signalling elicited via peptidomimetics: activation by 2-at-LIGRL-NH2
Description: as §1

Substance | Compound Summary as Determined by RTCA Screen (PAR2 [1]) | also measured
2at-LIGR-PEG3-Hdc [Compound 12] | Full PAR2 Agonist | –
2at-SIGR-PEG3-Hdc [Compound 13] | No Activity at PAR2 Detected | –
2at-TIGR-PEG3-Hdc (2at-TIGR-{PEG3′-Hdc}) [Compound 14] | PAR2 Agonist and Antagonist | RTCA signalling profile (agonist/antagonist) (PAR2 [1]; listed as C608): Partial RTCA agonist and potent anatagonist (low concentrations); MAPK pathway profile (agonist/antagonist) (PAR2 [2]): Full MAPK agonist; Effect on MAPK signalling (as antagonist) (PAR2 [2]): without effects on MAPK signalling; Ca2+ signalling profile (agonist/antagonist) (PAR2 [3]): Partial Ca^2+ signalling agonist and potent antagonist (low concentrations); Block of PAR2 Ca2+ signalling elicited via protease activation (PAR2 [3]): blocked PAR2-dependent Ca^2+ signalling; Block of PAR2 Ca2+ signalling elicited via peptidomimetics (PAR2 [3]): blocked PAR2-dependent Ca^2+ signalling
2at-SKGR-PEG3-Hdc (2at-SKGR-{PEG3′-Hdc}) [Compound 6] | – | Antagonistic activity against peptidomimetic activation (PAR2 [1]; xCELLigence in vitro physiological signalling assay): maintained antagonistic activity
2at-hydroxyproline-IGR-PEG3-Hdc [Compound 20] | No Activity at PAR2 Detected | –
2at-SRGR-PEG3-Hdc [Compound 7] | No Activity at PAR2 Detected | –
2at-SKGRS-PEG3-Hdc (2at-SKGRS-{PEG3′-Hdc}) [Compound 5] | PAR2 Antagonist | Effect on MAPK signalling (as antagonist) (PAR2 [2]): no effect; Block of PAR2 Ca2+ signalling elicited via protease activation (PAR2 [3]): blocks PAR2 Ca^2+ signalling; Block of PAR2 Ca2+ signalling elicited via peptidomimetics (PAR2 [3]): blocks PAR2 Ca^2+ signalling
2at-TKGR-PEG3-Hdc [Compound 10] | No Activity at PAR2 Detected | –
2at-SHGR-PEG3-Hdc [Compound 8] | No Activity at PAR2 Detected | –
2at-LKGR-PEG3-Hdc [Compound 11] | Full PAR2 Agonist | –
2at-DIGR-PEG3-Hdc [Compound 15] | No Activity at PAR2 Detected | –

Now from value to substance, other results behind:

Compound Summary as Determined by RTCA Screen (PAR2 [1]) | Substance | also measured
No Activity at PAR2 Detected | 2at-(dL)IGR-PEG3-Hdc [Compound 24] | –
PAR2 Agonist | 2at-homoserine-IGR-PEG3-Hdc [Compound 21] | –
PAR2 Agonist | 2at-HIGR-PEG3-Hdc [Compound 16] | –
No Activity at PAR2 Detected | 2at-(dl)IGR-PEG3-Hdc [Compound 25] | –
No Activity at PAR2 Detected | 2at-(dT)IGR-PEG3-Hdc [Compound 26] | –
No Activity at PAR2 Detected | 2at-4thiazolamine-IGR-PEG3-Hdc [Compound 23] | –
No Activity at PAR2 Detected | 2at-penicillamine-IGR-PEG3-Hdc [Compound 22] | –
PAR2 Agonist | 2at-VIGR-PEG3-Hdc [Compound 17] | –
